Test results from ChEMBL document CHEMBL1201862, “PubChem BioAssay data set” (2004).
Activity calls are given as the source filed them.

How the values were obtained:
[1] = HEK-293T viability loss, compound-treated – cell-based, uHTS hits, cytotoxicity control for B/T-cell NF-kB inhibitor project, dose response (AID 489019); assay type: functional;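 further: IC50 reflects cytotoxicity as loss of cell viability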
[2] = target: Cyclin-dependent kinase 5/CDK5 activator 1 (Homo sapiens, UniProt Q00535); assay: blockade of human CDK5 activity – biochemical, cherry-picked samples, set 2, dose response (AID 504545)
Jurkat = assay: blockers of NF-kB activation in T cells – Jurkat, luciferase reporter, luminescence, B- and T-cell, dose response (AID 489004); assay type: functional, cell-based; conditions: Homo sapiens;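 further: NF-kB luciferase reporter Jurkat cells stimulated with PMA plus ionomycin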
[3] = target: T1, Dual specificity protein phosphatase 3 (Homo sapiens, UniProt P51452); assay: SAR VHR1 Fluorescent Assay for In Vitro dose response studies Set 3. [Related pubchem assays (depositor defined):AID1654, AID1661, AID1878]; assay type: functional
Large T antigen = Large T antigen (Simian virus 40, UniProt P03070); assay type: functional, Betapolyomavirus macacae;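 further: Confirmatory-stage PubChem screen for compounds that inhibit SV40 T antigen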
[4] = target: Bifunctional protein GlmU (Mycobacterium tuberculosis, UniProt P9WMN3); assay: Inhibitors of Mycobacterial Glucosamine-1-phosphate acetyl transferase (GlmU). Secondary screen.; design: species or system Mycobacterium tuberculosis H37Rv
Troponin, cardiac muscle = Troponin, cardiac muscle (Homo sapiens, UniProt P19429+P45379+P63316); assay: Fluorescence-based biochemical high throughput dose response assay for activators of the calcium sensitivity of cardiac Regulated Thin Filaments (RTF). [Related pubchem assays (depositor defined):AID493008, AID493018, AID504382, AID504383]; assay type: protein-complex assay
[5] = target: Intestinal-type alkaline phosphatase (Mus musculus, UniProt P24822); assay: mouse intestinal alkaline phosphatase activators, dose response, biochemical, luminescence, uHTS hits (AID 488783); assay type: functional
[6] = target: Intestinal-type alkaline phosphatase (Homo sapiens, UniProt P09923); assay: activation of human intestinal alkaline phosphatase – biochemical, dose response (AID 488873); assay type: functional
[7] = target: T2, Alkaline phosphatase, tissue-nonspecific isozyme (Homo sapiens, UniProt P05186); assay: activation of tissue-nonspecific alkaline phosphatase – biochemical, TNAP isozyme, mouse IAP uHTS hits, selectivity assay for mouse IAP activator project, dose response (AID 488880); assay type: functional
T2 sequence (P05186 whole entry): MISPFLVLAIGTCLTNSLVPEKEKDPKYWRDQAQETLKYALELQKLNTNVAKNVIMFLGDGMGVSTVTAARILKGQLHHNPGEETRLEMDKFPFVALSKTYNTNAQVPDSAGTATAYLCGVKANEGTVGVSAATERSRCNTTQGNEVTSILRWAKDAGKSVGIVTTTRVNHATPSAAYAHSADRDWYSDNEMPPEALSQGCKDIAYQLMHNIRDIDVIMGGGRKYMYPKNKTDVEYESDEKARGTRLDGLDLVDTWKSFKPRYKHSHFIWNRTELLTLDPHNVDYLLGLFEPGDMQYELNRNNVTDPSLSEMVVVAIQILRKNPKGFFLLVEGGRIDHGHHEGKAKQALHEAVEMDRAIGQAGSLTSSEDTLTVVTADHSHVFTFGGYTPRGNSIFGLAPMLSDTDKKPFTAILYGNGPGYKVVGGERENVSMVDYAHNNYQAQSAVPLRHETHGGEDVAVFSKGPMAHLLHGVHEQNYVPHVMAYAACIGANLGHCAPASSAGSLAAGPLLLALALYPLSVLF

Keap1/Nrf2 = Keap1/Nrf2 (Homo sapiens, UniProt Q14145); assay: disruptors of Keap1 binding to Nrf2 peptide – biochemical, fluorescence polarization, cherry-picked samples, dose response (AID 588683)
[8] = target: Tyrosine-protein phosphatase non-receptor type 12 (Homo sapiens, UniProt Q05209); assay: SAR Selectivity Analysis of small molecule inhibitors of PEST using pCAP in a fluorescence assay. [Related pubchem assays (depositor defined):AID1779, AID1784, AID2135]; assay type: functional
[9] = target: T3, Tyrosine-protein phosphatase non-receptor type 22 (Homo sapiens, UniProt Q9Y2R2); assay: inhibition of lymphoid tyrosine phosphatase LYP – biochemical, pCAP fluorogenic substrate, fluorescence, set 3, SAR follow-up (AID 449727); assay type: functional
T3 sequence (Q9Y2R2 whole entry): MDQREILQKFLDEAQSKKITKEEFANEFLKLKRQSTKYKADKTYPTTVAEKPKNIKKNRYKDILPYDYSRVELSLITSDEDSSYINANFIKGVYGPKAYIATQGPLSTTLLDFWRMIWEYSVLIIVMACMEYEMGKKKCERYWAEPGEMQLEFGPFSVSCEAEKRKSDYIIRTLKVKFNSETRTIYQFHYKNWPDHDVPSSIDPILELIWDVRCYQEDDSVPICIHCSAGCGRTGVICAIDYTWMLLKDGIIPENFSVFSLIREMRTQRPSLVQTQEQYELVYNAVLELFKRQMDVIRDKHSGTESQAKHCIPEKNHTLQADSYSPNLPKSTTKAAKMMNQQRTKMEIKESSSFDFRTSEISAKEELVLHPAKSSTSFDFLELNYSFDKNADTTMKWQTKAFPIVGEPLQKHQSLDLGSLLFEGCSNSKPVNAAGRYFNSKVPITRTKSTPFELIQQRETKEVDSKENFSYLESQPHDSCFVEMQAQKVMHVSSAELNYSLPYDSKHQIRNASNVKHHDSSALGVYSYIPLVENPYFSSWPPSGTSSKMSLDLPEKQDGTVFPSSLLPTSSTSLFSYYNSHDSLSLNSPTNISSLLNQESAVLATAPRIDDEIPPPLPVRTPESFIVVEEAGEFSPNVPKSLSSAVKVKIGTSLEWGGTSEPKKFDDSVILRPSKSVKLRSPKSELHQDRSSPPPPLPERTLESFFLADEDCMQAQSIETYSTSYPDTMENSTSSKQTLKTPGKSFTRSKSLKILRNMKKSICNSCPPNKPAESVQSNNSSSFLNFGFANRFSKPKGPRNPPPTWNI

[10] = target: T3, Tyrosine-protein phosphatase non-receptor type 22; assay: SAR LYP1 Fluorescent Assay using OMFP substrate for In Vitro dose response studies - Set 3. [Related pubchem assays (depositor defined):AID1779, AID1784, AID2140, AID2686]; assay type: functional
[11] = target: T4, Dual specificity protein phosphatase 6 (Rattus norvegicus, UniProt Q64346); assay type: functional;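 further: confirmatory in vitro dose-response testing of MKP-3 inhibition; recombinant His-tagged MKP-3 made in E. coli BL21 with OMFP substrate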
T4 sequence (Q64346 whole entry): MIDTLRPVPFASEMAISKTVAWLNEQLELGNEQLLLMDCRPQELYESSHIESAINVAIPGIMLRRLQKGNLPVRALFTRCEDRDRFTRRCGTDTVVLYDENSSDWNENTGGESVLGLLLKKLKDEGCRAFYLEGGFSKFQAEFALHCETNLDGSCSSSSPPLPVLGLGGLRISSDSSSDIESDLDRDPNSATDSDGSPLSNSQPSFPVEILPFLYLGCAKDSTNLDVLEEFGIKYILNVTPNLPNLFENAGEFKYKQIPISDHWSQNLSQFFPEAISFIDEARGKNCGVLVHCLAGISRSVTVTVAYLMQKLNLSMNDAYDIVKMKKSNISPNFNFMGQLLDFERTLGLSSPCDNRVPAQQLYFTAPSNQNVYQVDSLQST

[12] = target: T1, Dual specificity protein phosphatase 3; assay: VHR1 phosphatase inhibitors, primary screen, biochemical, absorbance, uHTS (AID 1654)
[13] = target: T5, Apoptotic protease-activating factor 1 (Homo sapiens, UniProt O14727); assay: activation of Apaf-1 mediated apoptosis – fluorescent, uHTS hits, dose response (AID 588554); assay type: functional
T5 sequence (O14727 whole entry): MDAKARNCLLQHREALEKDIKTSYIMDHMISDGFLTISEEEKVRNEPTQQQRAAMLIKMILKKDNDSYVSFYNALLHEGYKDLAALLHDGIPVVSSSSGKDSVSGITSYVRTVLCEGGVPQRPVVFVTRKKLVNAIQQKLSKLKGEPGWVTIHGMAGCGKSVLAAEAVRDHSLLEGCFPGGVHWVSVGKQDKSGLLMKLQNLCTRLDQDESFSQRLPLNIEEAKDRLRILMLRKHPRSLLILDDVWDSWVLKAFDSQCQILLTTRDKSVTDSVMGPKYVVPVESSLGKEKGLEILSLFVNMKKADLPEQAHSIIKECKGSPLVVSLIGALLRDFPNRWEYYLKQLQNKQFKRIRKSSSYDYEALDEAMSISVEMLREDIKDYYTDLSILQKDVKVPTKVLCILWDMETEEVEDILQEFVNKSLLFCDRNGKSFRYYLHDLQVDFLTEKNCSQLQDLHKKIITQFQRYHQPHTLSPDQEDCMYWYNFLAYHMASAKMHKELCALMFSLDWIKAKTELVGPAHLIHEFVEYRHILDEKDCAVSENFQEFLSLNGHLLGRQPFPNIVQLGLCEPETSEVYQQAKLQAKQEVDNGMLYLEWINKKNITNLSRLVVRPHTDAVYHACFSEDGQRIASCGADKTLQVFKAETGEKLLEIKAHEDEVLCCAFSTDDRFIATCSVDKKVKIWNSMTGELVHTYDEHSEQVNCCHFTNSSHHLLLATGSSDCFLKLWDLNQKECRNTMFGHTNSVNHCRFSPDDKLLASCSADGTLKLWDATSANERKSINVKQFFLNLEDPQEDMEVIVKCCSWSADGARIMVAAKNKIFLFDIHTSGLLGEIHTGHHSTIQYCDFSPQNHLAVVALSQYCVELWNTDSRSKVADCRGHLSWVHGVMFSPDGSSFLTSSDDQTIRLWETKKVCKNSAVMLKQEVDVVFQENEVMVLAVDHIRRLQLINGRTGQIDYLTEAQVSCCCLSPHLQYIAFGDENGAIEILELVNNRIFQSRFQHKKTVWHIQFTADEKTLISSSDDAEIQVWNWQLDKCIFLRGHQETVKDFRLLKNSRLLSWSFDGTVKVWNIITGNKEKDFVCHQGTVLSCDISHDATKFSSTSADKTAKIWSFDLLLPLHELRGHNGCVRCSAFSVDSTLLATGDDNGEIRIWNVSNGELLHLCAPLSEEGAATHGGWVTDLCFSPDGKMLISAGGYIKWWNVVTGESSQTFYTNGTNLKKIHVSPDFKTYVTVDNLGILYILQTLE

[14] = target: T6, Tyrosine-protein phosphatase non-receptor type 7 (Homo sapiens, UniProt P35236); assay: redox-active compounds inhibiting HePTP phosphatase – biochemical, fluorescence, mechanism study (AID 2068); assay type: functional
T6 sequence (P35236 whole entry): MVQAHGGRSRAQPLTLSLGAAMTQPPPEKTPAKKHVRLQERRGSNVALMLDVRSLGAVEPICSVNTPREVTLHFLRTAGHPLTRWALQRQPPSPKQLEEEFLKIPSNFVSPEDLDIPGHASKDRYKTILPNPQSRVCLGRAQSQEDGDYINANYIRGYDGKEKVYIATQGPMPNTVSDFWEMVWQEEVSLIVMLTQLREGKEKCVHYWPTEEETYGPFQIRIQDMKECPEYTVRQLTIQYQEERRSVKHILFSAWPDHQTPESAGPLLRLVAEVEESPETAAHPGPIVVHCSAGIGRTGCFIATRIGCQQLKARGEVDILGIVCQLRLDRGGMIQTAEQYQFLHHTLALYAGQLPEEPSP

[15] = target: T1, Dual specificity protein phosphatase 3; assay: VHR1 phosphatase inhibitors, biochemical (AID 1878)
[16] = target: T1, Dual specificity protein phosphatase 3; assay: SAR VHR1 absorbance Assay for In Vitro dose response studies. [Related pubchem assays (depositor defined):AID1654, AID1661, AID1878, AID1992, AID2004]
[17] = target: T4, Dual specificity protein phosphatase 6; assay: inhibition of rat DUSP6 enzyme activity – biochemical, in vitro, primary screen (AID 425)
Genome polyprotein = Genome polyprotein (dengue virus type 2, UniProt P29990); assay: flavivirus cap methylation enzyme inhibition – biochemical, confirmation dose response, primary screen (AID 588689); assay type: functional
[18] = target: T1, Dual specificity protein phosphatase 3; assay: SAR VHR1 Fluorescent Assay for In Vitro dose response studies. [Related pubchem assays (depositor defined):AID1654, AID1661, AID1878, AID1992, AID2004, AID2070, AID2085]; assay type: functional

SMILES: C=CC(=O)Nc1ccc(Nc2nc(N[C@H]3CC[C@H](N(C)C)CC3)nc3c2ncn3C(C)C)cc1
- IC50 [1]: > 80 µM (inactive)
- AC50 [2]: 1.48 µM (active)
- IC50 (Jurkat): 0.17 µM (active)

SMILES: Cc1cc(Cl)cc2sc(N(Cc3cccnc3)C(=O)c3cccc(N4C(=O)CCC4=O)c3)nc12
- IC50 [3]: 58.2 µM (active)

SMILES: Cc1ccc(/C=C2/SC(=O)NC2=S)o1
- IC50 (Large T antigen): > 100 µM (active)
- IC50 [4]: 170 µM (active)
- EC50 (Troponin, cardiac muscle): 17.9 µM (inactive)
- EC50 [5]: 21.8 µM (active)
- EC50 [6]: 41.4 µM (active)
- EC50 [7]: 45.5 µM (active)
- AC50 (Keap1/Nrf2): > 52 µM (inactive)

SMILES: CCc1ccc(NC2=NC(=O)/C(=C/c3cc(Br)c(OCC(=O)O)c(OC)c3)S2)cc1
- IC50 [8]: 2.78 µM (active)
- IC50 [9]: 6.74 µM (active)
- IC50 [10]: 10.3 µM (active)
- IC50 [11]: 44.9 µM (active)
- IC50 [12]: 10.5 µM (active)
- EC50 [13]: 15.8 µM (active)
- IC50 [14]: 0.28 µM (active)
- IC50 [15]: 3.93 µM (active)
- IC50 [16]: 3.62 µM (active)
- IC50 [17]: 84.5 µM (active)
- IC50 (Genome polyprotein): 39.5 µM (active)
- IC50 [18]: 0.878 µM (active)
